The source made the active and inactive calls. The rule behind the calls is not given here.

The text below walks through data of ChEMBL document CHEMBL2331387, “Chemical probes of a trisubstituted pyrrole to identify its protein target(s) in Plasmodium sporozoites” (2013).

The subject of experiment [1] is Plasmodium berghei. In words: Antimalarial activity against sporozoite stage of Plasmodium berghei infected in human HepG2 cells assessed as inhibition of sporozoite infectivity at 10 uM after 40 hrs. Type of experiment: functional, organism-based.
The subject of experiment [2] is Plasmodium berghei. In words: Antimalarial activity against sporozoite stage of Plasmodium berghei infected in human HepG2 cells assessed as inhibition of sporozoite infectivity at 2 uM after 40 hrs. Type of experiment: functional.

On to `O=C(CCCCCNC(=O)CCCC[C@@H]1SC[C@@H]2NC(=O)N[C@@H]21)NCCCCCC(=O)NCCN1CCC(c2cc(-c3ccncc3)c(-c3ccc(F)cc3)[nH]2)CC1`, for which the inhibition result in the experiment on Plasmodium berghei [1] and in the experiment on Plasmodium berghei [2] was “inactive” in each case.

With `Fc1ccc(-c2[nH]c(C3CCNCC3)cc2-c2ccncc2)cc1`, in the experiment on Plasmodium berghei [1], the inhibition entry is “Active”.

Consider `O=C(CCCC[C@@H]1SC[C@@H]2NC(=O)N[C@@H]21)NCCOCCOCCOCCOCCC(=O)NCCN1CCC(c2cc(-c3ccncc3)c(-c3ccc(F)cc3)[nH]2)CC1`, for which the inhibition entry with Plasmodium berghei [1] and with Plasmodium berghei [2] was “inactive” each time.

For `CN1CCC(c2cc(-c3ccncc3)c(-c3ccc(F)cc3)[nH]2)CC1`, the inhibition at 2 µM with Plasmodium berghei [2] (HepG2, 40 h) is above 90%.

Take `NCCN1CCC(c2cc(-c3ccncc3)c(-c3ccc(F)cc3)[nH]2)CC1`: the inhibition entry in the experiment on Plasmodium berghei [1] is “Active”.
